Laboratory results reported in patent publication US8821754B2, “Additive for preserving the fluidity of fluids containing gas hydrates” (Akzo Nobel N.V., priority 2006, dated 2014).
Marks after values point to notes of the source that are not given here.

Test: multicell shut-in and restart test of anti-agglomerants
Parameters: key: 0: The stirrer did not start at all until the temperature had been increased so much that the gas hydrate had melted; 1: The stirrer started but stopped again after a short period; 2: The stirrer started and kept on running continuously
Details: fresh water, 70 bar, 2.0% anti-agglomerant, restart after at least twelve hours at 4° C.
Description: (§1) The technique used for evaluating the anti-agglomerants is described in detail in “New Technique for Evaluating Antiagglomerate Gas-Hydrate Inhibitors in Oilfield Applications”, SPE 93075, 2005 SPE International Symposium on Oilfield Chemistry, Houston, Tex., Feb. 2-4.
(§2) The complete multicell system consists of a high-pressure vessel containing the multicell test unit, a cooling unit, a stirrer drive, a sensor interface unit, and a computer system. The high-pressure vessel is connected to two gas cylinders containing pressurized hydrocarbon gas (87.9% methane, 7.7% ethane, 3.1% propane, and 1.3% isobutane) and nitrogen. Thus, in an experimental run each test cell will be subjected to the same gas mixture, temperature, and pressure. Each cell has a magnetic bar stirrer and the rotation of the stirrer is monitored by the sensor and recorded. When gas hydrate crystals are formed in a cell, there will be a change in viscosity or flow behaviour and there will be a change in the lag of the stirrer bar. Each time the magnetic bar passes a certain point, an optical pulse is recorded. The lag is measured as the difference between the position of the lower drive magnets and the stirrer in the cell. When the viscosity gets too high, as is the case when larger aggregates of gas hydrates are formed, the magnetic stirrer will either stop completely, in which case the signal will be zero, or start “skipping”, which will create an unstable/random signal, and this will be shown in the recorded graph.
(§3) Each cell is also equipped with a temperature sensor.
The cells are loaded in the same way as above, but hydrocarbon gas is admitted until the constant stated pressure is reached.
In this experiment the test cells were stirred at 120 rpm for one hour at 20° C. and the stated pressure. The stirring was then stopped and the autoclave cooled to 4° C. in about 1.5 hours. The cells were then kept at 4° C. for a minimum of twelve hours before the driving magnets were restarted at 120 rpm. They were then kept running for about two hours at 4° C. before the cells were reheated to 20° C. in about 1.5 hours.
This is marked as 0 in the tables. • The stirrer started but stopped again after a short period. This is marked as 1 in the tables. • The stirrer started and kept on running continuously. This is marked as 2 in the tables.

Row | Compound | Tests multicell shut-in, Fresh water (70 bar) 2.0%
1 | (Coco alkyl)amine + 2EO + 2PO [Compound 3] | 2
2 | Oleyl amine + 2EO + 2PO [Compound 1] | 1

Same assay, conditions: fresh water, 70 bar, 2.5% anti-agglomerant, restart after at least twelve hours at 4° C.

Row | Compound | Tests multicell shut-in, Fresh water (70 bar) 2.5%
3 | CCCCCCCC/C=C\CCCCCCCCN(CCCNC(C)=O)C(C)=O [Compound 10, N-oleyl-trimethylene diamine diamidated with acetic anhydride] | 2
4 | CCCCC(CC)CN(CCCNC(C)=O)C(C)=O (centres unmarked) [Compound 14, N-(2-ethylhexyl)-trimethylene diamine, diamidated with acetic anhydride] | 2
5 | N-(2-ethylhexyl)-trimethylene diamine + 3PO [Compound 15] | 1
6 | N-oleyl-trimethylene diamine + 3EO, triesterified with acetic anhydride [Compound 6] | 2
7 | Oleyl amine + 2EO + 2PO [Compound 1] | 1

Same assay, conditions: seawater, 70 bar, 1.5% anti-agglomerant, restart after at least twelve hours at 4° C.

Row | Compound | Tests multicell shut-in, Seawater (70 bar) 1.5%
8 | CCCCCCCC/C=C\CCCCCCCCN(CCCNC(C)=O)C(C)=O [Compound 10, N-oleyl-trimethylene diamine diamidated with acetic anhydride] | 0
9 | CCCCC(CC)CN(CCCNC(C)=O)C(C)=O (centres unmarked) [Compound 14, N-(2-ethylhexyl)-trimethylene diamine, diamidated with acetic anhydride] | 0
10 | (Coco alkyl)amine + 2EO + 2PO [Compound 3] | 0
11 | N-oleyl-trimethylene diamine + 3EO, triesterified with acetic anhydride [Compound 6] | 0

Same assay, conditions: seawater, 70 bar, 2.5% anti-agglomerant, restart after at least twelve hours at 4° C.

Row | Compound | Tests multicell shut-in, Seawater (70 bar) 2.5%
12 | CCCCCCCC/C=C\CCCCCCCCN(CCCNC(C)=O)C(C)=O [Compound 10, N-oleyl-trimethylene diamine diamidated with acetic anhydride] | 2
13 | CCCCC(CC)CN(CCCNC(C)=O)C(C)=O (centres unmarked) [Compound 14, N-(2-ethylhexyl)-trimethylene diamine, diamidated with acetic anhydride] | 0
14 | (Coco alkyl)amine + 2EO + 2PO [Compound 3] | 1
15 | N-(2-ethylhexyl)-trimethylene diamine + 3PO [Compound 15] | 2
16 | N-oleyl-trimethylene diamine + 3EO, triesterified with acetic anhydride [Compound 6] | 1
17 | Oleyl amine + 2EO + 2PO [Compound 1] | 1

Same assay, conditions: seawater, 100 bar, 1.5% anti-agglomerant, restart after at least twelve hours at 4° C.

Row | Compound | Tests multicell shut-in, Seawater 1.5%, measured at 100 bar
18 | Oleyl amine + 2EO + 2PO [Compound 1] | 2**

Test: multicell screening of anti-agglomerants (stirred cells cooled to 4° C., 100 bars)
Parameters: key to Tests multicell screening, Seawater 1.0% / Tests multicell screening, Seawater 1.5% / Tests multicell screening, Fresh water 1.5% / Tests multicell screening, Fresh water 2.5%: 0: the compound does not work as an anti-agglomerant; 1: the compound initially works as an anti-agglomerant, but not throughout the whole test; 2: the compound works as an anti-agglomerant throughout the whole test
Details: fresh water, 1.5% anti-agglomerant, 100 bars, 4° C., Sleipner condensate
Description: as §1, §2, §3
The cells are loaded with 1 ml of water/inhibitor mixture and 2.5 ml of Sleipner condensate (=crude oil obtained from the Sleipner oilfield of Statoil). Nitrogen is first applied to expel most of the air, and then hydrocarbon gas is admitted until a constant pressure of 100 bars is reached.
During the whole test, the mixtures were continuously stirred at 120 rpm. The temperature was first lowered from about 20° C. to 4° C. in about 1.5 hours, then kept at 4° C. for about two hours, and finally reheated again to 20° C. in about 1.5 hours. When the stirrer works all the time, the compound is considered to work well as an anti-agglomerant, whereas if the stirrer bar stops, the compound is considered not to work as an anti-agglomerant during the prevailing conditions. The tests were performed both in seawater and in fresh water and at different concentrations of the anti-agglomerants.

Row | Compound | Tests multicell screening, Fresh water 1.5%
19 | Erucyl amine + 2EO + 2PO [Compound 2] | 2
20 | Monoamide between oleic acid and aminoethyl ethanolamine, amidated with acetic anhydride [Compound 8] | 2
21 | Oleyl amine + 2EO + 2PO, quaternized with CH3Cl [reference compound] | 0
22 | Oleyl amine + 2EO, diester with acetic acid [Compound 5] | 0

Same assay, conditions: fresh water, 2.5% anti-agglomerant, 100 bars, 4° C., Sleipner condensate

Row | Compound | Tests multicell screening, Fresh water 2.5%
23 | N-oleyl-trimethylene diamine + 3EO, triesterified with acetic anhydride [Compound 6] | 2
24 | Oleyl amine + 2EO, diester with acetic acid [Compound 5] | 0

Same assay, conditions: multicell screening test of Example 1

Row | Compound | effect as anti-agglomerant for gas hydrates in the screening test, in words
25 | (Coco alkyl)amine + 2EO + 2PO [Compound 3] | works excellently as an anti-agglomerant
26 | (Coco alkyl)amine + 2EO [B, reference compound] | not effective
27 | (Coco alkyl)amine + 4 EO [reference compound] | not effective

Same assay, conditions: seawater, 1.0% anti-agglomerant, 100 bars, 4° C., Sleipner condensate

Row | Compound | Tests multicell screening, Seawater 1.0%
28 | (Coco alkyl)amine + 2EO + 2PO [Compound 3] | 2
29 | (Coco alkyl)amine + 2EO [B, reference compound] | 0
30 | (Coco alkyl)amine + 4 EO [reference compound] | 0
31 | Monoamide between oleic acid and aminoethyl ethanolamine + 1EO, diesterified with acetic anhydride [Compound 7] | 2
32 | Monoamide between oleic acid and aminoethyl ethanolamine, amidated with acetic anhydride [Compound 8] | 2
33 | N,N-bis(3-aminopropyl)(tallow alkyl)amine, diamidated with acetic anhydride [Compound 9] | 0
34 | Oleyl amine + 2EO [D, reference compound] | 0
35 | Oleyl amine + 2EO, diester with acetic acid [Compound 5] | 0

Same assay, conditions: seawater, 1.5% anti-agglomerant, 100 bars, 4° C., Sleipner condensate

Row | Compound | Tests multicell screening, Seawater 1.5%
36 | CCCCCCCC/C=C\CCCCCCCCN(CCCNC(C)=O)C(C)=O [Compound 10, N-oleyl-trimethylene diamine diamidated with acetic anhydride] | 2
37 | CCCCCCCCN(CCCNC(C)=O)C(C)=O [Compound 11, N-(n-octyl)-trimethylene diamine diamidated with acetic anhydride] | 2
38 | (Coco alkyl)amine + 2EO + 2PO [Compound 3] | 2
39 | (Coco alkyl)amine + 2EO [B, reference compound] | 0
40 | (Coco alkyl)amine + 4 EO [reference compound] | 0
41 | Erucyl amine + 2EO + 2PO [Compound 2] | 2
42 | Monoamide between oleic acid and aminoethyl ethanolamine, amidated with acetic anhydride [Compound 8] | 2
43 | N,N-bis(3-aminopropyl)(tallow alkyl)amine, diamidated with acetic anhydride [Compound 9] | 2
44 | N-(coco alkyl)-trimethylene diamine diamidated with acetic anhydride [Compound 12] | 2
45 | N-(n-octyl)-trimethylene diamine + 3PO [Compound 4] | 2
46 | N-(tallow alkyl)-N-methyl aminopropylamine monoamidated with acetic anhydride [Compound 13] | 2
47 | N-oleyl-trimethylene diamine + 3EO, triesterified with acetic anhydride [Compound 6] | 2
48 | Oleyl amine + 2EO + 2PO [Compound 1] | 2
49 | Oleyl amine + 2EO + 2PO, quaternized with CH3Cl [reference compound] | 2
50 | Oleyl amine + 2EO, diester with acetic acid [Compound 5] | 2
